Earlier results, collected in patent US20240139350A1, “RADIOACTIVELY LABELED LIGAND FOR FIBROBLAST ACTIVATION PROTEIN-ALPHA IMAGING AGENT AND PREPARATION METHOD THEREFOR” (FIVE ELEVEN PHARMA, INC, priority 2021, published 2024).

Legend:
murine FAP = biological target: T1, murine FAP (Mus musculus, UniProt P97321); settings: human embryonic kidney cells expressing mouse FAP
T1 construct: expressed in transfected cells; host or cells: human embryonic kidney cells
T1 sequence (P97321 1-761): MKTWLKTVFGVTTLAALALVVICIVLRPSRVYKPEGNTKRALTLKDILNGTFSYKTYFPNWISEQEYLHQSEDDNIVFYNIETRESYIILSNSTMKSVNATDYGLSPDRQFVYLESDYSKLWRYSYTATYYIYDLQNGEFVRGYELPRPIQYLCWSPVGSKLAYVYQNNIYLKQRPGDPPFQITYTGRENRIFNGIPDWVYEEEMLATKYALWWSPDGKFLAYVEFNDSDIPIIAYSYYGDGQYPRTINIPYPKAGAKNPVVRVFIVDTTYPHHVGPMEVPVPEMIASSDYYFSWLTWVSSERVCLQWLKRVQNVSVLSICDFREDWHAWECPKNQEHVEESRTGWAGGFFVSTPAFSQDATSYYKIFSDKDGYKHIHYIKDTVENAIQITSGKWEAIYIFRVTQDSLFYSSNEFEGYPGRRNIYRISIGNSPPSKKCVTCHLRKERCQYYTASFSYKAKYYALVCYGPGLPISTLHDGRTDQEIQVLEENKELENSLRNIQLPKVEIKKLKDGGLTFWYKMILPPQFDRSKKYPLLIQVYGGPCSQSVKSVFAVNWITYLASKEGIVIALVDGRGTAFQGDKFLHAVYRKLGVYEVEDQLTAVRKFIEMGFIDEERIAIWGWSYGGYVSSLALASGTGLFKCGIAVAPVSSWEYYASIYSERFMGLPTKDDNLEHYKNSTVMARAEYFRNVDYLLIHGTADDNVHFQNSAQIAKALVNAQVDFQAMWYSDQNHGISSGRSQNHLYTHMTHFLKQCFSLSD

[1] = coordination to Ga^3+
[2] = biological target: T2, dipeptidyl peptidase 4 (CD26) (Homo sapiens, UniProt P27487); settings: human embryonic kidney cells transfected with CD26
T2 construct: expressed in transfected cells; host or cells: human embryonic kidney cells

FAP-positive tumor = settings: after 24 hours, relative to FAPI-02

T2 sequence (P27487 whole entry, species assumed): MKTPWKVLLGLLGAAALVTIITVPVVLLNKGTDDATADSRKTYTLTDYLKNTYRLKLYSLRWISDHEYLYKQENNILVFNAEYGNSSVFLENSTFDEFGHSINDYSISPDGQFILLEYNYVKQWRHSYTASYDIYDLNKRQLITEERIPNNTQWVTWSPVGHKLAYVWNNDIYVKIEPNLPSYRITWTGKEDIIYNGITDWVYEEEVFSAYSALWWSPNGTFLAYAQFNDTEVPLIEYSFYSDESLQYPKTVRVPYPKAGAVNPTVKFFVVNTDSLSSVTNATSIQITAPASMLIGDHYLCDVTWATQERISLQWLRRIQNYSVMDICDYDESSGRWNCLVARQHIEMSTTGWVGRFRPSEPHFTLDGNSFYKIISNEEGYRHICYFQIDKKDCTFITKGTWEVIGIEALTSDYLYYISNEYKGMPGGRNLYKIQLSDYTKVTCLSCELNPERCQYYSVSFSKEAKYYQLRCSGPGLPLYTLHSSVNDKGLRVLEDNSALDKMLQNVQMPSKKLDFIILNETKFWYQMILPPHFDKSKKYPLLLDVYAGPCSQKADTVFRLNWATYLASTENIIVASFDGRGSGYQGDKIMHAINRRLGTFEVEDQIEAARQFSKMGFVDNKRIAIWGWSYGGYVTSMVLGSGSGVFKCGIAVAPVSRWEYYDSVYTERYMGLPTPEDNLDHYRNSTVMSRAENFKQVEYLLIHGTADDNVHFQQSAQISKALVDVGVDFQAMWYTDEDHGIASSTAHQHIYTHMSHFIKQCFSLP

binding to murine FAP (murine FAP) | SMILES | thermodynamically stable constant log KML [1] | other results
strong binding | N#C[C@@H]1CCCN1C(=O)CNC(=O)c1ccnc2ccc(OCCCN3CCN(C(=O)CN4CCN(CC(=O)O)CCN(CC(=O)O)CCN(CC(=O)O)CC4)CC3)cc12 [FAPI-02] | – | –
– | O=C(O)CN1CCN(CC(=O)O)CCN(CC(=O)O)CCN(CC(=O)O)CC1 [DOTA] | 21.3 | –
– | CC1(N(CC(=O)O)CC(=O)O)CN(CC(=O)O)CCN(CC(=O)O)C1 [AAZTA] | 22.18 | –
– | O=C(O)CN1CCN(CC(=O)O)CCN(CC(=O)O)CC1 [NOTA] | 31.0 | –
strong binding | N#C[C@@H]1CC(F)(F)CN1C(=O)CNC(=O)c1ccnc2ccc(OCCCN3CCN(C(=O)CN4CCN(CC(=O)O)CCN(CC(=O)O)CCN(CC(=O)O)CC4)CC3)cc12 [FAPI-04] | – | binding to CD26 [2]: did not bind
– | N#C[C@@H]1CC(F)(F)CN1C(=O)CNC(=O)c1ccnc2ccc(OCCCN3CCN(C(=O)CN4CCN(CC(=O)O)CCN(CC(=O)O)CCN(CC(=O)O)CC4)CC3)cc12 (177Lu complex, metal not drawn) [FAPI-04] | – | effective tumor uptake higher than FAPI-02 (FAP-positive tumor): 100%
